Experimental data reported in patent publication US20060069132A1, “Azolecarboxamide herbicides” (priority 2004, published 2006).
Where two headings read alike, the source gives them in different places.

Legend:
[1] = tested on: small flower umbrella sedge; test: Test B flooded paddy test; assay type: in vivo, Cyperus difformis; details: Cyperus difformis, 336 h, 1000 g ai/ha, scale 0 to 100 (0 no effect, 100 complete control), read-out: Sedge, Umbrella plant response rating
In short: (§1)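 Treated at 2-leaf (paddy) or 1–4-leaf, 2–18 cm (postemergence); greenhouse 13–15 d; visual score vs control, 0 none to 100 complete control; dash = not tested.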

velvetleaf = test: Test B pre-/postemergence herbicide test; assay type: in vivo, Abutilon theophrasti; details: Abutilon theophrasti, 336 h; for pest or weed control at 125 g/ha: 125 g ai/ha; for pest or weed control at 500 g/ha: 500 g ai/ha
In short: (§2)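 Herbicidal effect was judged by eye on a 0–100 scale after plants stood 13 to 15 days in the greenhouse following pre- or postemergence treatment with surfactant-containing formulations.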

lambsquarters = test: Test B pre-/postemergence herbicide test; assay type: in vivo, Chenopodium album; details: Chenopodium album, 336 h; for pest or weed control at 125 g/ha: 125 g ai/ha
In short: as §2

wild oat = test: Test B postemergence herbicide test; assay type: in vivo, Avena fatua; details: Avena fatua, post-emergence, 336 h, postemergence, read-out: Oat, Wild plant response rating
In short: (§3)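 Formulated test chemicals went onto postemergence plants measuring 2 to 18 cm, at one to four leaves. For the paddy assay, species had reached two leaves. Scoring took place 13–15 days later by eye, relative to untreated plants, using 0 for no effect up to 100 for full control.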

cocklebur = test: Test B pre-/postemergence herbicide test; assay type: in vivo, Xanthium strumarium; details: Xanthium strumarium; for pest or weed control at 125 g/ha: 125 g ai/ha; for pest or weed control at 500 g/ha: 500 g ai/ha
In short: as §2

Surinam grass = test: Test B pre-/postemergence herbicide test; assay type: in vivo, Urochloa decumbens; details: Urochloa decumbens; for pest or weed control at 125 g/ha: 125 g ai/ha; for pest or weed control at 500 g/ha: 500 g ai/ha
In short: as §2

barnyardgrass = test: Test B flooded paddy test; assay type: in vivo, Echinochloa crus-galli; details: Echinochloa crus-galli, 336 h, 1000 g ai/ha, scale 0 to 100 (0 no effect, 100 complete control), read-out: Barnyardgrass plant response rating
In short: as §1

corn = test: Test B pre-/postemergence herbicide test; assay type: in vivo, Zea mays; details: Zea mays; for plant injury at 125 g/ha: 125 g ai/ha
In short: as §2

blackgrass = test: Test B postemergence herbicide test; assay type: in vivo, Alopecurus myosuroides; details: Alopecurus myosuroides, post-emergence, 336 h, postemergence, visual rating, scale 0 (no effect) to 100 (complete control), read-out: Blackgrass plant response rating
In short: as §1

morningglory = test: Test B pre-/postemergence herbicide test; assay type: in vivo, Ipomoea coccinea; details: Ipomoea, 336 h; for pest or weed control at 125 g/ha: 125 g ai/ha; for pest or weed control at 500 g/ha: 500 g ai/ha
In short: as §2

rice = test: Test B flooded paddy test; assay type: in vivo, Oryza sativa; details: Oryza sativa, 336 h, 1000 g ai/ha, scale 0 to 100 (0 no effect, 100 complete control), read-out: Rice plant response rating
In short: as §1

large crabgrass = test: Test B pre-/postemergence herbicide test; assay type: in vivo, Digitaria sanguinalis; details: Digitaria sanguinalis; for pest or weed control at 125 g/ha: 125 g ai/ha; for pest or weed control at 500 g/ha: 500 g ai/ha
In short: as §2

wheat = test: Test B postemergence herbicide test; assay type: in vivo, Triticum aestivum; details: Triticum aestivum, post-emergence, 336 h, postemergence, read-out: Wheat plant response rating
In short: as §3

pigweed = test: Test B pre-/postemergence herbicide test; assay type: in vivo, Amaranthus retroflexus; details: Amaranthus retroflexus, post-emergence, 336 h, postemergence, read-out: Pigweed plant response rating
In short: as §2

giant foxtail = test: Test B pre-/postemergence herbicide test; assay type: in vivo, Setaria faberi; details: Setaria faberi, 336 h; for pest or weed control at 125 g/ha: 125 g ai/ha; for pest or weed control at 500 g/ha: 500 g ai/ha
In short: as §2

[2] = 125 g ai/ha, visual rating, scale 0 (no effect) to 100 (complete control)
[3] = 500 g ai/ha, scale 0 to 100, 0 is no effect, 100 is complete control
[4] = post-emergence, postemergence, visual rating, scale 0 (no effect) to 100 (complete control), read-out: Cocklebur plant response rating

Q: What does the source list for `CCOC(=O)c1ccc(F)c(NC(=O)C2CC(C(C)(C)C)=NN2CC)c1` (stereo not drawn) [Compound 267, ethyl 3-[[[3-(1,1-dimethylethyl)-1-ethyl-4,5-dihydro-1H-pyrazol-5-yl]carbonyl]amino]-4-fluorobenzoate]?
A: pest or weed control at 1000 g/ha [1]: 70%; pest or weed control at 125 g/ha (velvetleaf; post-emergence, postemergence, visual rating, scale 0 (no effect) to 100 (complete control), read-out: Velvetleaf plant response rating): 50%; pest or weed control at 500 g/ha (velvetleaf; post-emergence, postemergence, scale 0 to 100, 0 is no effect, 100 is complete control, read-out: Velvetleaf plant response rating): 70%; pest or weed control at 125 g/ha (velvetleaf; pre-emergence, 0 = no effect, 100 = complete control, read-out: Velvetleaf plant response rating (0 to 100 scale)): 20%; pest or weed control at 500 g/ha (velvetleaf; pre-emergence, visual rating, 0 = no effect, 100 = complete control, read-out: Plant response rating, Velvetleaf): 50%; pest or weed control at 125 g/ha (lambsquarters; post-emergence, postemergence, visual rating, scale 0 (no effect) to 100 (complete control), read-out: Lambsquarters plant response rating): 30%; pest or weed control at 500 g/ha (lambsquarters; post-emergence, postemergence, 500 g ai/ha, scale 0 to 100, 0 is no effect, 100 is complete control, read-out: Lambsquarters plant response rating): 50%; pest or weed control at 125 g/ha (lambsquarters; pre-emergence, 0 = no effect, 100 = complete control, read-out: Lambsquarters plant response rating (0 to 100 scale)): 0%; pest or weed control at 125 g/ha (wild oat; [2]): 30%; pest or weed control at 500 g/ha (wild oat; [3]): 40%; pest or weed control at 125 g/ha (cocklebur; [4]): 30%; pest or weed control at 500 g/ha (cocklebur; [4]): 90%; pest or weed control at 125 g/ha (cocklebur; pre-emergence, 0 = no effect, 100 = complete control, read-out: Cocklebur plant response rating (0 to 100 scale)): 0%; pest or weed control at 500 g/ha (cocklebur; pre-emergence, visual rating, 0 = no effect, 100 = complete control, read-out: Plant response rating, Cocklebur): 0%; pest or weed control at 125 g/ha (Surinam grass; post-emergence, postemergence, visual rating, scale 0 (no effect) to 100 (complete control), read-out: Surinam Grass plant response rating): 30%; pest or weed control at 500 g/ha (Surinam grass; post-emergence, postemergence, scale 0 to 100, 0 is no effect, 100 is complete control, read-out: Surinam Grass plant response rating): 50%; pest or weed control at 125 g/ha (Surinam grass; pre-emergence, 0 = no effect, 100 = complete control, read-out: Surinam Grass plant response rating (0 to 100 scale)): 10%; pest or weed control at 500 g/ha (Surinam grass; pre-emergence, visual rating, 0 = no effect, 100 = complete control, read-out: Plant response rating, Surinam Grass): 50%; pest or weed control at 1000 g/ha (barnyardgrass): 60%; plant injury at 125 g/ha (corn; post-emergence, postemergence, visual rating, scale 0 (no effect) to 100 (complete control), read-out: Corn plant response rating): 20%; plant injury at 500 g/ha (corn; post-emergence, postemergence, 500 g ai/ha, scale 0 to 100, 0 is no effect, 100 is complete control, read-out: Corn plant response rating): 40%; plant injury at 125 g/ha (corn; pre-emergence, 0 = no effect, 100 = complete control, read-out: Corn plant response rating (0 to 100 scale)): 0%; Corn plant response rating (crop injury, 0 = no effect, 100 = complete kill) at 500 g/ha (corn; pre-emergence, 500 g ai/ha, visual rating, 0 = no effect, 100 = complete control): 20%; pest or weed control at 125 g/ha (blackgrass; 125 g ai/ha): 20%; pest or weed control at 500 g/ha (blackgrass; 500 g ai/ha): 40%; pest or weed control at 125 g/ha (morningglory; post-emergence, postemergence, visual rating, scale 0 (no effect) to 100 (complete control), read-out: Morningglory plant response rating): 30%; pest or weed control at 500 g/ha (morningglory; post-emergence, postemergence, scale 0 to 100, 0 is no effect, 100 is complete control, read-out: Morningglory plant response rating): 40%; pest or weed control at 125 g/ha (morningglory; pre-emergence, 0 = no effect, 100 = complete control, read-out: Morningglory plant response rating (0 to 100 scale)): 20%; pest or weed control at 500 g/ha (morningglory; pre-emergence, visual rating, 0 = no effect, 100 = complete control, read-out: Plant response rating, Morningglory): 30%; plant injury at 1000 g/ha (rice): 70%; pest or weed control at 125 g/ha (large crabgrass; post-emergence, postemergence, visual rating, scale 0 (no effect) to 100 (complete control), read-out: Crabgrass, Large plant response rating): 20%; pest or weed control at 500 g/ha (large crabgrass; post-emergence, postemergence, scale 0 to 100, 0 is no effect, 100 is complete control, read-out: Crabgrass, Large plant response rating): 40%; pest or weed control at 125 g/ha (large crabgrass; pre-emergence, 0 = no effect, 100 = complete control, read-out: Crabgrass, Large plant response rating (0 to 100 scale)): 40%; pest or weed control at 500 g/ha (large crabgrass; pre-emergence, visual rating, 0 = no effect, 100 = complete control, read-out: Plant response rating, Crabgrass, Large): 100%; plant injury at 125 g/ha (wheat; [2]): 20%; plant injury at 500 g/ha (wheat; [3]): 30%; pest or weed control at 125 g/ha (pigweed; [2]): 60%; pest or weed control at 500 g/ha (pigweed; [3]): 90%; pest or weed control at 125 g/ha (giant foxtail; post-emergence, postemergence, visual rating, scale 0 (no effect) to 100 (complete control), read-out: Foxtail, Giant plant response rating): 40%; pest or weed control at 500 g/ha (giant foxtail; post-emergence, postemergence, scale 0 to 100, 0 is no effect, 100 is complete control, read-out: Foxtail, Giant plant response rating): 50%; pest or weed control at 125 g/ha (giant foxtail; pre-emergence, 0 = no effect, 100 = complete control, read-out: Foxtail, Giant plant response rating (0 to 100 scale)): 30%; pest or weed control at 500 g/ha (giant foxtail; pre-emergence, visual rating, 0 = no effect, 100 = complete control, read-out: Plant response rating, Foxtail, Giant): 80%
